Values quoted from earlier work as cited in patent publication US7294332B2, “Combination therapy (temozolomide and α-IFN) for advanced cancer” (Schering Corporation, priority 1995, dated 2007).

Experiments:
advanced melanoma [1] = settings: patients with advanced melanoma; Journal of Clinical Oncology, Vol 13, No. 4 (April), 1995
advanced melanoma [2] = settings: patients having advanced melanoma; Newlands ES, et al. Br J Cancer 65 (2), 1992

Cn1nnc2c(C(N)=O)ncn2c1=O [Temozolomide, 3,4-dihydro-3-methyl-4-oxoimidazo-[5,1-d]1,2,3,4-tetrazin-8-carboximide]
clinical response achieved, % of patients (advanced melanoma [1]): 21%
clinical responses achieved, % of patients (advanced melanoma [2]): 17%
